Patent publication US6521283B1, “Non-thrombogenic surfaces” (Biocompatibles Limited, priority 1990, dated 2003)
Values joined by “and” are separate entries in the source; they are usually repeats but may differ in a detail not shown here. Identical values can stand only once. Marks after values point to notes of the source that are not given here.

Key:
[1] = wettability: static contact angles with distilled water drops; assay type: physicochemical; conditions: for Contact angles (°) (average) / Contact angles (°), single readings: distilled water drops after 5 minutes
Protocol: The wettability of materials coated with DPPC according to the preceding examples was assessed by measurement of static contact angles using distilled water drops after 5 minutes in contact with the surface.

[2] = tested on: blood cells / platelet cells; experiment: haemocompatibility of suture materials by scanning electron microscopy after incubation in whole blood; assay type: cell-based, human; conditions: braided polyester yarn suture material coated at 10 mg/ml (Example 3)
Protocol: Samples of the braided material treated according to Example 3 were incubated in fresh, citrated whole blood as described in Example 10 above. After removal from the blood these materials were washed using PBS and prepared for scanning electron microscopy by fixing in an aliquot of the following solution:
83 ml 0.15 M PBS (pH 7.4) 15 ml saturated picric acid
The samples were washed in PBS and dehydrated using 70% ethanol, followed by absolute ethanol. Finally samples were sputter coated with gold (at 30 mA for 3 minutes) and observed under the electron microscope.

platelets = experiment: quantitative platelet adhesion test (ATP luminometry) in fresh citrated whole human blood; assay type: cell-based
Protocol: A quantitative platelet adhesion test was carried out by immersing samples in fresh citrated whole human blood at room temperature for 30 minutes. Tubing samples were prepared in 3 cm lengths sealed at both ends (the blood being introduced into the sample by hypodermic needle), and constantly mixed using a spiral mixer (tests were carried out in triplicate). Blood used in this assay was obtained using the double syringe method.
After incubation the samples were washed in isotonic phosphate buffered saline (PBS) and extracted into 1% trichloro acetate (TCA) (w/v) in 2 mM ethylene diamine tetraacetic acid (EDTA) to liberate ATP from any platelets adhering to the walls of the tubing.
The amount of ATP present in the extractant was estimated using the LKB Pharmacia ATP assay kit and a luminometer.
The number of platelets adhering to the samples was estimated from a standard curve using ATP levels associated with a known number of platelets.

recalcified blood = experiment: in-use simulation: recalcified blood incubated in catheter segments, clot formation; set-up: species or system human; conditions: 15 cm catheter segment, frosted region, coated according to Example 2, 37° C., 150 minutes
Protocol: Three 15 cm segments of catheter (frosted region) coated according to Example 2 were prepared with the ends sealed using Eppendorf tubes. 40 ml of blood was collected from an adult volunteer into tri-sodium citrate (32 g/l) using the double syringe technique (the first 5 ml were discarded). 2 ml of 0.025 M calcium chloride in 0.15 M sodium chloride was added to 10 ml of citrated blood. 4 ml of recalcified blood was then added to each of the three catheter segments. The tubes were placed in a 37° C. incubator for 150 minutes. The samples were turned every 30 minutes. After this incubation the blood was drained from each of the catheters. They were then rinsed using PBS to remove any loosely bound material.

[3] = PVC thoracic drain catheter coated as Ex. 2 at 10 mg/ml
[4] = polyethylene coated as Ex. 5 at 10 mg/ml
[5] = soft PVC tubing coated as Ex. 1
[6] = FEP IV catheters treated at 10 mg/ml in ethanol (Example 8)
[7] = PE (polyethylene) treated at 10 mg/ml
[8] = PVC thoracic drain catheter, clear region, coated at 10 mg/ml (Example 2)
[9] = PVC thoracic drain catheter, frosted region, coated at 10 mg/ml (Example 2)
[10] = hard PVC tubing coated with 5 mg/ml solution (Example 1)
[11] = hard PVC tubing coated with 10 mg/ml solution (Example 1)
[12] = polypropylene hollow fibre membrane treated at 2 mg/ml (Example 7)
[13] = polypropylene hollow fibre membrane treated at 10 mg/ml (Example 7)
[14] = polypropylene hollow fibre membrane treated at 10 mg/ml (Example 7), includes outlier
[15] = polystyrene petri dish spin-coated at 10 mg/ml (Example 4)
[16] = soft PVC tubing coated with 5 mg/ml solution (Example 1)
[17] = soft PVC tubing coated with 10 mg/ml solution (Example 1)

CCCCCCCCCCCCCCCC(=O)OC[C@H](COP(=O)([O-])OCC[N+](C)(C)C)OC(=O)CCCCCCCCCCCCCCC [DPPC, dipalmitoyl phosphatidyl choline]
Contact angles (°) (average) [1, 3]: 24 ° | Contact angles (°), single readings [1, 3]: 26 ° and 19 ° | Conclusion (wettability) [1, 4]: Wettable surface | Contact angles (°) (average) [1, 4]: 15 ° | Contact angles (°), single readings [1, 4]: 12 ° and 21 ° | Conclusion (wettability) [1, 5]: Wettable surface | Contact angles (°) (average) [1, 5]: 8 ° | Contact angles (°), single readings [1, 5]: 9 ° and < 5 ° and 10 ° | activation of platelet cells (electron microscopy) [2]: platelet cells are not activated | adhesion of blood cells (electron microscopy) [2]: adhere fewer blood cells than untreated materials | thrombogenicity vs untreated braided yarns [2]: appear less thrombogenic | % Reduction (platelet adhesion vs untreated catheters) (platelets; [6]): 65% | platelets adhered, DONOR 1 (platelets; [6]): 1.89 platelets ×10^6 per 5 cm length of catheter | platelets adhered, DONOR 2 (platelets; [6]): 1.24 platelets ×10^6 per 5 cm length of catheter | platelets adhered, DONOR 3 (platelets; [6]): 5.84 platelets ×10^6 per 5 cm length of catheter | platelets adhered, X̄ (mean of donors) (platelets; [6]): 2.99 platelets ×10^6 per 5 cm length of catheter | % Reduction (platelet adhesion vs uncoated PE) (platelets; [7]): 94% | platelets adhered, DONOR 1 (platelets; [7]): 1.58 no. of platelets ×10^6 per 22 mm^2 area of material | platelets adhered, DONOR 2 (platelets; [7]): 3.76 no. of platelets ×10^6 per 22 mm^2 area of material | platelets adhered, DONOR 3 (platelets; [7]): 1.72 no. of platelets ×10^6 per 22 mm^2 area of material | platelets adhered, X̄ (mean of donors) (platelets; [7]): 2.35 no. of platelets ×10^6 per 22 mm^2 area of material | % Reduction (platelet adhesion vs uncoated) (platelets; [8]): 97% | platelets adhered, DONOR 1 (platelets; [8]): 0.53 platelets adhered ×10^6 per 3 cm lengths of catheters | platelets adhered, DONOR 2 (platelets; [8]): 1.38 platelets adhered ×10^6 per 3 cm lengths of catheters | platelets adhered, DONOR 3 (platelets; [8]): 0.60 platelets adhered ×10^6 per 3 cm lengths of catheters | platelets adhered, X̄ (mean of donors) (platelets; [8]): 0.84 platelets adhered ×10^6 per 3 cm lengths of catheters | % Reduction (platelet adhesion vs uncoated) (platelets; [9]): 87% | platelets adhered, DONOR 1 (platelets; [9]): 0.88 platelets adhered ×10^6 per 3 cm lengths of catheters | platelets adhered, DONOR 2 (platelets; [9]): 1.05 platelets adhered ×10^6 per 3 cm lengths of catheters | platelets adhered, DONOR 3 (platelets; [9]): 0.59 platelets adhered ×10^6 per 3 cm lengths of catheters | platelets adhered, X̄ (mean of donors) (platelets; [9]): 0.84 platelets adhered ×10^6 per 3 cm lengths of catheters | platelet adhesion to coated PVC / thrombogenicity of PVC tubing (platelets; PVC tubing coated according to Example 1): large reduction in the thrombogenicity | % Reduction (platelet adhesion vs uncoated control) (platelets; [10]): 94% | platelets adhered, DONOR 2 (platelets; [10]): 0.13 no. of platelets ×10^6 per 3 cm lengths of tubing | platelets adhered, DONOR 3 (platelets; [10]): 0.19 no. of platelets ×10^6 per 3 cm lengths of tubing | platelets adhered, X̄ (mean of donors) (platelets; [10]): 0.35 no. of platelets ×10^6 per 3 cm lengths of tubing | platelets adhered, DONOR 1 (platelets; hard PVC tubing coated with 5 mg/ml solution (Example 1), 30 min, room temperature): 0.72 no. of platelets ×10^6 per 3 cm lengths of tubing | % Reduction (platelet adhesion vs uncoated control) (platelets; [11]): 97% | platelets adhered, DONOR 1 (platelets; [11]): 0.51 no. of platelets ×10^6 per 3 cm lengths of tubing | platelets adhered, DONOR 2 (platelets; [11]): 0.14 no. of platelets ×10^6 per 3 cm lengths of tubing | platelets adhered, DONOR 3 (platelets; [11]): 0.10 no. of platelets ×10^6 per 3 cm lengths of tubing | platelets adhered, X̄ (mean of donors) (platelets; [11]): 0.25 no. of platelets ×10^6 per 3 cm lengths of tubing | % Reduction (platelet adhesion vs untreated) (platelets; [12]): 91% | platelets adhered, DONOR 1 (platelets; [12]): 0.91 no. of platelets ×10^6 per 20 cm length of fibre | platelets adhered, DONOR 2 (platelets; [12]): 0.89 no. of platelets ×10^6 per 20 cm length of fibre | platelets adhered, DONOR 3 (platelets; [12]): 0.53 no. of platelets ×10^6 per 20 cm length of fibre | platelets adhered, X̄ (mean of donors) (platelets; [12]): 0.78 no. of platelets ×10^6 per 20 cm length of fibre | platelets adhered, DONOR 1 (platelets; [13]): 0.41 no. of platelets ×10^6 per 20 cm length of fibre | platelets adhered, DONOR 3 (platelets; [13]): 0.52 no. of platelets ×10^6 per 20 cm length of fibre | % Reduction (platelet adhesion vs untreated) (platelets; [14]): 56% | platelets adhered, X̄ (mean of donors) (platelets; [14]): 3.67 no. of platelets ×10^6 per 20 cm length of fibre | platelets adhered, DONOR 2 (platelets; polypropylene hollow fibre membrane treated at 10 mg/ml (Example 7), result thought to be an outlier): 10.08* no. of platelets ×10^6 per 20 cm length of fibre | % Reduction (platelet adhesion vs uncoated) (platelets; [15]): 92% | platelets adhered, DONOR 1 (platelets; [15]): 5.54 no. of platelets ×10^6 adhered per petri dish (50 mm diameter) | platelets adhered, DONOR 2 (platelets; [15]): 3.55 no. of platelets ×10^6 adhered per petri dish (50 mm diameter) | platelets adhered, DONOR 3 (platelets; [15]): 3.08 no. of platelets ×10^6 adhered per petri dish (50 mm diameter) | platelets adhered, X̄ (mean of donors) (platelets; [15]): 4.06 no. of platelets ×10^6 adhered per petri dish (50 mm diameter) | % Reduction (platelet adhesion vs uncoated control) (platelets; [16]): 96% | platelets adhered, DONOR 1 (platelets; [16]): 0.76 no. of platelets ×10^6 per 3 cm lengths of tubing | platelets adhered, DONOR 2 (platelets; [16]): 0.72 no. of platelets ×10^6 per 3 cm lengths of tubing | platelets adhered, DONOR 3 (platelets; [16]): 0.30 no. of platelets ×10^6 per 3 cm lengths of tubing | platelets adhered, X̄ (mean of donors) (platelets; [16]): 0.59 no. of platelets ×10^6 per 3 cm lengths of tubing | % Reduction (platelet adhesion vs uncoated control) (platelets; [17]): 90% | platelets adhered, DONOR 1 (platelets; [17]): 0.97 no. of platelets ×10^6 per 3 cm lengths of tubing | platelets adhered, DONOR 2 (platelets; [17]): 1.89 no. of platelets ×10^6 per 3 cm lengths of tubing | platelets adhered, DONOR 3 (platelets; [17]): 1.25 no. of platelets ×10^6 per 3 cm lengths of tubing | platelets adhered, X̄ (mean of donors) (platelets; [17]): 1.37 no. of platelets ×10^6 per 3 cm lengths of tubing | drainage of blood and clot remaining in catheter (recalcified blood): blood drained easily. One small clot remained attached to the surface
